Assay results taken from article PMC9862175 (Molecules, 2023).
Where “and” joins values, the source holds several entries; their conditions need not be identical. Equal values may be shown once. Read-outs that look alike come from different tables or passages of the source.

How the values were obtained:
17β-HSD1 = biological target: T1, 17β-HSD1 (Homo sapiens, UniProt P14061); test: 17β-HSD1 inhibition assay: transformation of [3H]-E1 to [3H]-E2 in whole T-47D cells; format: cell-based; details: for inhibition at 0.1 µM / inhibition at 1 µM / inhibition at 10 µM: T47D
T1 construct: endogenous in cells; host or cells: T-47D human breast cancer cells (ATCC), whole cells
T1 sequence (P14061 1-328): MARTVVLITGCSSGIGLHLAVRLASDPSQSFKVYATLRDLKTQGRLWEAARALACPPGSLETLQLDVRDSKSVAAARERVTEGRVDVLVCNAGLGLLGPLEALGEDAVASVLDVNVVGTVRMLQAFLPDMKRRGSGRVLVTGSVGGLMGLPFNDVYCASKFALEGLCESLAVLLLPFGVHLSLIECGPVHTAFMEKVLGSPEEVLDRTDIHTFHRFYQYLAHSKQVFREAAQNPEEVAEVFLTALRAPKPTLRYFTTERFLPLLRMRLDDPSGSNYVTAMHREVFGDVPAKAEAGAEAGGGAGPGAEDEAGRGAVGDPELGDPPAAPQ
Method: Cells were maintained under a 5% CO2 humidified atmosphere at 37 °C. The culture media were changed every two or three days and the cells were split once a week to maintain cell propagation.
T-47D cells were grown in a medium supplemented with insulin (50 ng/mL) and 5% dextran-coated charcoal-treated FBS, which was used rather than untreated 10% FBS, to remove the remaining steroid hormones. Stock solution of each compound to be tested was previously prepared in DMSO and diluted with a culture medium to achieve the appropriate concentrations, prior to use. For the assay, the cells (8000 cells/well) were seeded in a 24-well plate. After 24 h of incubation, a diluted solution of each inhibitor was added to the cells to obtain the appropriate final concentration (0.1, 1 and 10 μM). The final concentration of DMSO in the well was adjusted to 0.03%. […] Cells were incubated for 24 h and each inhibitor was assessed in triplicate. […] The organic phase was evaporated to dryness with nitrogen. Residues were dissolved in CH2Cl2, spotted on silica gel TLC plates (EMD Chemicals Inc., Gibbstown, NJ, USA) and eluted with toluene/acetone (4:1) as the solvent system. […] Each compound was quantified with a scintillation counter.

[1] = test system: T-47D breast cancer cells; test: Cell viability (MTS) assay in T-47D cells; format: cell-based, human; details: for IC50: cell proliferation after 3 days, MTS; for Stimulation of ER+ cell proliferation (estrogenic activity): T-47D cells, 3 days
Method: T-47D cells: Human T-47D breast cancer cells were obtained from American Type Culture Collection (Manassas, VA, USA) and cultured in RPMI-1640 supplemented with L-glutamine ([…]), penicillin (100 IU/mL), streptomycin (100 µg/mL), 17β-estradiol (1 nM) and 10% (v/v) fetal bovine serum (FBS). Cells were maintained under a 5% CO2 humidified atmosphere at 37 °C. The culture media were changed every two or three days and the cells were split once a week to maintain cell propagation.
(§1) The cell proliferation assays were performed using 3-(4,5-dimethylthiazol-2-yl)-5-(3-carboxymethoxyphenyl)-2-(4-sulfophenyl)-2H-tetrazolium (MTS) (Cell Titer 96 Aqueous, Promega, Nepean, ON, Canada), as previously described. Briefly, cells (5000/well for T-47D or 3000/well for Z-12) were plated in triplicate in 96-well plates in appropriate culture medium (total of 90 µL). Before each treatment, the cells were incubated at 37 °C in a 5% CO2 humidified atmosphere for 24 h. Compounds 5, 6, 10 and RM-581, as positive control, were dissolved in DMSO to obtain stock solutions, which were diluted at multiple concentrations with culture media to obtain the desired final concentration by adding 10 µL in each well, and the mixture was incubated for 3 days. Following treatment, 20 µL of a solution of MTS were added to each well and the mixture was incubated for 4 h. The plates were subsequently analyzed at 490 nm using a Tecan M-200 microplate reader (Männedorf, Switzerland) and the concentration inhibiting 50% of cell proliferation was determined using GraphPad Prism 6 software.

[2] = test system: Z-12 endometriotic epithelial cells; test: Cell viability (MTS) assay in Z-12 cells; format: cell-based, human; details: for IC50: cell proliferation after 3 days, MTS, read-out: Z-12 Cells (Endometriosis) (IC50 in μM), cell proliferation; for Stimulation of ER+ cell proliferation (estrogenic activity): Z-12 cells, 3 days
Method: Z-12 cells: Human Z-12 endometriotic epithelial cells were obtained from Dr. Asgi T. Fazleabas (Michigan State University, Grand Rapids, MI). Cells were grown in Dulbecco’s Modified Eagle medium (DMEM/F12) supplemented with 5% (v/v) FBS treated with dextran-coated charcoal, L-glutamine ([…]), penicillin (100 IU/mL) and streptomycin (100 µg/mL). Cells were maintained under a 5% CO2 humidified atmosphere at 37 °C. The culture media were changed every two or three days and the cells were split once a week to maintain cell propagation.
as §1

[3] = Homo sapiens, Epithelial cell, 72 h
[4] = read-out: Inhibition (IC50 in μM) of E1 to E2 transformation by 17β-HSD1, T-47D cells, [3H]-E1/E1 60 nM, 24 h
[5] = T-47D cells, [3H]-E1/E1 60 nM, 24 h, inhibitor 0.1 μM
[6] = T-47D cells, [3H]-E1/E1 60 nM, 24 h, inhibitor 1 μM
[7] = T-47D cells, [3H]-E1/E1 60 nM, 24 h, inhibitor 10 μM

| Structure (SMILES) | IC50 (17β-HSD1) [µM] | inhibition at 0.1 µM (17β-HSD1) [%] | inhibition at 1 µM (17β-HSD1) [%] | inhibition at 10 µM (17β-HSD1) [%] | IC50 ([1]; Homo sapiens, T47D, 72 h) [µM] | Stimulation of ER+ cell proliferation (estrogenic activity) [1] | IC50 [2, 3] [µM] | Stimulation of ER+ cell proliferation (estrogenic activity) [2] | also measured |
| --- | --- | --- | --- | --- | --- | --- | --- | --- | --- |
| C[C@]12CC[C@@H]3c4ccc(Oc5cccc(C(N)=O)c5)cc4CC[C@H]3[C@@H]1CCC2=O [Compound 5, 3-(3-Carbamoylphenyloxy)-estra-1,3,5(10)-trien-17-one] | 0.31 | 29.1 ± 6.2 | 70.7 ± 14.1 | 98.9 ± 2.8 | 49 | did not stimulate | > 30 | did not stimulate |  |
| C[C@]12CC[C@@H]3c4ccc(Oc5cccc(C(N)=O)c5)cc4CC[C@H]3[C@@H]1CC[C@@H]2O [Compound 6, 3-(3-Carbamoylphenyloxy)-estra-1,3,5(10)-trien-17β-ol] | 1.2 | 40 ± 6.5 | 48.6 ± 15.7 | 59.6 ± 1.5 | 37 | did not stimulate | > 30 | did not stimulate |  |
| C[C@]12CC[C@@H]3c4ccc(Oc5cccc(C(N)=O)c5)cc4CC[C@H]3[C@@H]1C[C@@H](CCCBr)[C@@H]2O [Compound 10, 3-(3-Carbamoylphenyloxy)-16α-(3-bromopropyl)-estra-1,3,5(10)-trien-17β-ol] |  | 28.2 ± 5.4 | 37 ± 14.5 | 82.1 ± 5.7 | 14 | did not stimulate | 20 | did not stimulate | Inhibitory activity, fold lower than EM-251 (17β-HSD1; IC50 1.3 μM vs 0.58 μM of EM-251, T-47D cells): 2 fold; IC50 (17β-HSD1; [4]): 1.3 µM |
| C[C@]12CC[C@@H]3c4ccc(O)cc4CC[C@H]3[C@@H]1CCC2=O [E1, estrone] |  |  |  |  |  |  |  |  | inhibition at 0.1 µM (17β-HSD1; [5]): 45%; inhibition at 1 µM (17β-HSD1; [6]): 61%; inhibition at 10 µM (17β-HSD1; [7]): 78%; Inhibition (% at 0.1 μM) (17β-HSD1; [5]): 44.9 ± 14.7%; Inhibition (% at 1 μM) (17β-HSD1; [6]): 60.9 ± 8.3%; Inhibition (% at 10 μM) (17β-HSD1; [7]): 78.1 ± 2.2% |
| C[C@]12CCC3c4ccc(O)cc4CCC3C1C[C@@H](CCCBr)[C@@H]2O (some centres unmarked) [EM-251] | 0.58 | 43.8 ± 0.2 | 36.9 ± 9.3 | 86.6 ± 8 |  |  |  |  |  |
| C[C@]12CC[C@@H]3c4ccc(CCBr)cc4CC[C@H]3[C@@H]1C[C@H](Cc1cccc(C(N)=O)c1)[C@@H]2O [PBRM] |  |  |  |  |  |  |  |  | Inhibition (% at 0.1 μM) (17β-HSD1; [5]): 44% and 43.8 ± 3.4%; Inhibition (% at 1 μM) (17β-HSD1; [6]): 75% and 74.8 ± 3.2%; Inhibition (% at 10 μM) (17β-HSD1; [7]): 91.0 ± 3.8%; IC50 (17β-HSD1; [4]): 0.15 µM |
| C#C[C@]1(O)CC[C@H]2[C@@H]3CCc4cc(OC)c(N5CCN(C(=O)[C@@H]6CCCN6C(=O)c6ccc7ccccc7n6)CC5)cc4[C@H]3CC[C@@]21C [RM-581, reference compound] |  |  |  |  |  |  |  |  | IC50 [1]: 0.61 µM; IC50 [2]: 1.5 µM |
